Data: PMC8426299, “Effect of severe renal impairment on the pharmacokinetics of brigatinib” (Investigational New Drugs, 2021)
Read-outs that look alike come from different tables or passages of the source.

Experiments:
[1] = Urinary pharmacokinetics after single oral dose of brigatinib 90 mg; type: in vivo, human; details: for CL renal: human, oral, 90 mg; for CL renal / Ae0–168, Range / Ae0–168, amount of brigatinib excreted from time zero to 168 hours, mean (SD) / Fe0–168, Range: urine
Method: (§1) Blood samples were collected before brigatinib administration (predose) and at 0.5, 1, 1.5, 2, 2.5, 3, 4, 6, 8, 12, 24, 36, 48, 60, 72, 96, 120, 144, and 168 h after brigatinib administration to determine plasma brigatinib concentrations. Urine was collected predose and during intervals (0–8, 8–12, 12–24, 24–48, 48–72, 72–96, 96–120, and 120–168 h) after brigatinib administration to determine urine brigatinib concentrations. Urine samples were subsequently diluted 50:50 (v:v) urine:isopropanol at the clinical site.
(§2) Plasma and urine samples were analyzed by Charles River Laboratories, Inc. (Worcester, MA, USA) by LC-MS/MS, as previously reported. Plasma samples were analyzed using a dual-range assay with a lower limit of quantitation of 0.100 ng/mL and an upper limit of 2500 ng/mL [11]. Urine samples were analyzed using a single-range assay with a lower limit of quantitation of 25.0 ng/mL and upper limit of 2500 ng/mL [11].
(§3) Individual participant plasma concentration-time profiles were analyzed via noncompartmental analysis methods using Phoenix WinNonlin (version 6.4) to estimate PK parameters. Plasma PK parameters calculated for brigatinib included maximum observed plasma concentration (Cmax); Tmax; area under the plasma concentration-time curve from time zero to the time of the last measurable concentration (AUC0 − last); AUC from time zero to infinity (AUC0−∞); terminal elimination half-life (t1/2); apparent oral clearance (CL/F); and apparent volume of distribution (V/F). The fraction of unbound brigatinib in plasma was determined using the following formula: % free (unbound) = [free brigatinib concentration measured in buffer after RED]/[total concentration measured in plasma] X 100. Unbound brigatinib plasma PK parameters (except unbound CL/F and V/F, which were calculated as total CL/F or total V/F divided by the overall mean fraction unbound) were calculated using the following formula: unbound PK parameter = (parameter based on total concentrations) x (individual participant’s overall mean fraction unbound value). Urinary PK parameters included the amount of brigatinib excreted from time zero to time t (Ae0 − t,), fraction of the dose excreted (%) from time zero to time t (Fe0 − t), and renal clearance (CLR).

ALK + NSCLC = tested on: ALK + NSCLC; set-up: method as in PMID 32780660; details: cited from earlier work
[2] = Open-label single-dose (brigatinib 90 mg oral, fasting) plasma pharmacokinetic study, severe renal impairment vs matched healthy volunteers; type: in vivo, human; set-up: Cmax,u LS Mean (SE): unit not given beside the values; details: for half-life / Cmax: human, plasma, 90 mg; for half-life: oral, after a single dose, read-out: mean t1/2 (converted); for Cmax: po, read-out: total brigatinib Cmax, geometric mean (CV%); for Cmax / Tmax, median (range): single oral 90 mg; for V/F,u, geometric mean (geometric % CV): unbound apparent volume of distribution; for Cmax,u, Range / Cmax,u, geometric mean (geometric % CV): unbound
Method: This was an open-label, parallel-group study that enrolled patients with severe renal impairment and matched healthy volunteers with normal renal function. The study consisted of a 28-day screening period and a single nine-day inpatient treatment period (day − 1 to day 8). On the morning of day 1, each participant received a single oral dose of brigatinib 90 mg under fasting conditions.Participants were required to abstain from food for approximately 10 h prior to study drug administration and for approximately four hours postdose, with the exception of the standardized snack. Due to the high prevalence of diabetes in patients with severe renal impairment, the standardized snack (not high fat or high calorie) was given to all participants at 2.5 h postdose. Water was permitted ad libitum except for one hour prior to dosing and for approximately one hour postdose. Participants underwent end-of-study procedures and were discharged from the clinical site on day 8.
Healthy volunteers with normal renal function (eGFR ≥ 90 mL/min/1.73 m^2) were matched to patients with severe renal impairment by age (± 10 years), sex, body mass index (BMI; ±15 % at screening), and if possible, smoking habits. Patients with severe renal impairment were defined as those with an eGFR < 30 mL/min/1.73 m^2. eGFR was calculated using the Modification of Diet in Renal Disease equation (MDRD). Estimated creatinine clearance was based on the Cockcroft-Gault equation.
as §1, §2, §3
Descriptive statistics, including number of observations (n), arithmetic mean, standard deviation (SD), coefficient of variation (CV%), median, minimum, and maximum, were calculated for each time point for brigatinib plasma concentrations in each study group. […]

native EML4-ALK = tested on: native EML4-ALK; set-up: method as in PMID 27780853; details: compared with crizotinib, ceritinib, and alectinib; nonclinical studies; cited from earlier work
[3] = set-up: method as in ref 11 = [11]; PMID 31287236; doi:10.1002/cpdd.723; 11. Tugnait M Gupta N Hanley MJ Sonnichsen D Kerstein D Dorer DJ Venkatakrishnan K Narasimhan N Effects of strong CYP2C8 or CYP3A inhibition and CYP3A induction on the pharmacokinetics of brigatinib; details: cited from earlier work
[4] = set-up: method as in earlier work; details: cited from earlier work
[5] = set-up: method as in PMID 30570839; details: cited from earlier work
[6] = severe renal impairment compared with normal renal function
[7] = brigatinib vs crizotinib, P < 0.0001
[8] = Severe Renal Impairment (n = 8)
[9] = healthy volunteers with normal renal function
[10] = patients with severe renal impairment

`COc1cc(N2CCC(N3CCN(C)CC3)CC2)ccc1Nc1ncc(Cl)c(Nc2ccccc2P(C)(C)=O)n1` [brigatinib] showed a CL renal ([1]; Normal Renal Function (n=8), read-out: CLR, Range) of 27.5 to 63.7 mL/min, a CL renal ([1]; Normal Renal Function (n=8), read-out: CLR, renal clearance, mean (SD)) of 41.5 mL/min and a CL renal ([1]; Severe Renal Impairment (n=8), read-out: CLR, Range) of 5.4 to 13.4 mL/min. For the same molecule, the CL renal ([1]; Severe Renal Impairment (n=8), read-out: CLR, renal clearance, mean (SD)) was 9.17 mL/min, the “renal clearance as share of overall clearance of brigatinib” value ([1]; in vivo) was “approximately 25%” and the “renal clearance of unbound brigatinib, fold lower” value [1, 6] was “approximately five-fold”. For the same molecule, the “reduction of fraction of dose excreted in urine 0 to 168 h” value ([1]; severe renal impairment vs normal renal function) was “approximately 50%”, the “nonrenal clearance, percent lower” value ([1]; severe renal impairment vs normal renal function, derived from renal clearance share) was “approximately 50%” and the “Ae0–168, Range” value ([1]; Normal Renal Function (n=8)) was 11.58 to 21.77 mg. The “Ae0–168, amount of brigatinib excreted from time zero to 168 hours, mean (SD)” value ([1]; Normal Renal Function (n=8)) was 16.90 (3.57) mg, the “Fe0–168, Range” value ([1]; Normal Renal Function (n=8)) was 12.9–24.2% and the “Ae0–168, Range” value ([1]; Severe Renal Impairment (n=7)) was 3.92 to 14.36 mg. For the same molecule, the “Ae0–168, amount of brigatinib excreted from time zero to 168 hours, mean (SD)” value ([1]; Severe Renal Impairment (n=7)) was 7.58 (3.77) mg, the “Fe0–168, Range” value ([1]; Severe Renal Impairment (n=7)) was 4.36–16.0% and the “24-month PFS, blinded independent review committee-assessed” value (ALK + NSCLC; ALK inhibitor-naive patients) was 48%. For the same molecule, the “24-month PFS, investigator-assessed” value (ALK + NSCLC; ALK inhibitor-naive patients) was 56%, the “PFS hazard ratio [95 % CI], blinded independent review committee-assessed” value (ALK + NSCLC; [7]) was 0.49 and the “PFS hazard ratio [95 % CI], investigator-assessed” value (ALK + NSCLC; [7]) was 0.43 [0.31–0.61]. For the same molecule, the “V/F,u, Range” value ([2]; Normal Renal Function (n = 8)) was 5898–13,744 L, the “V/F,u, Range” value [2, 8] was 3556 to 8914 L and the “Cmax,u LS Mean (SE)” value ([2]; Severe renal impairment vs. Normal renal function) was 0.130 (0.1330). It also gave a half-life [2, 9] of roughly 42 h, a half-life [2, 10] of roughly 54 h and a Cmax [2, 9] of 362 ng/mL. The Cmax [2, 10] was 471 ng/mL, the “Tmax, median (range)” value ([2]; normal renal function group) was 2.0 (1.0–4.0) hours and the “total brigatinib AUC0 − last, percent higher” value [2, 6] was “more than 100%”. For the same molecule, the “total brigatinib AUC0−∞, percent higher” value [2, 6] was “more than 100%”, the “Tmax, median (range)” value ([2]; severe renal impairment group) was 2.5 (1.0–3.0) hours and the “unbound brigatinib AUC0 − last, percent higher” value ([2]; severe renal impairment versus normal renal function) was 77%. For the same molecule, the “V/F,u, geometric mean (geometric % CV)” value ([2]; Normal Renal Function (n = 8)) was 8327 (30.4) L, the “V/F,u, geometric mean (geometric % CV)” value [2, 8] was 5532 (31.4) L and the “Cmax,u, Range” value ([2]; Normal Renal Function (n = 8)) was 23.9 to 45.3 ng/mL. The “Cmax,u, geometric mean (geometric % CV)” value ([2]; Normal Renal Function (n = 8)) was 32.29 (25.1) ng/mL, the “Cmax,u, Range” value [2, 8] was 25.2 to 55.6 ng/mL and the “Cmax,u, geometric mean (geometric % CV)” value [2, 8] was 36.76 (29.0) ng/mL. The “potency and selectivity as inhibitor of native EML4-ALK” value (native EML4-ALK) was “more potent and selective inhibitor of native EML4-ALK”, the “decrease of systemic exposure (AUC)” value ([3]; coadministration of strong CYP3A inducers) was 80% and the “increase of systemic exposure (AUC)” value ([3]; coadministration of strong CYP3A inhibitors) was 101%. For the same molecule, the “effect on systemic exposure (AUC)” value ([3]; coadministration with a strong inhibitor of CYP2C8) was “did not meaningfully affect”, the “administered dose recovered in feces” value [4] was 65% and the “administered dose recovered in urine” value [4] was 25%. For the same molecule, the “unchanged brigatinib as share of total radioactivity in feces” value [4] was 41%, the “unchanged brigatinib as share of total radioactivity in urine” value [4] was 86% and the “effect of a high-fat meal on total exposure (AUC)” value [5] was “no effect”.
